Measured values as given in publication PMC7472354, “Enhanced Antimicrobial Activity of N-Terminal Derivatives of a Novel Brevinin-1 Peptide from The Skin Secretion of Odorrana schmackeri” (Toxins, 2020).
Converted amounts (≈) assume the structure as drawn. Like-named read-outs stand apart in the source and are kept apart here. Where a SMILES comes first, the peptide text is derived from it.

Key:
[1] = test system: E. coli (NCTC 10418) biofilm; assay type: cell-based, Escherichia coli; details: for MBIC50 / MBIC90: NCTC 10418, 24 h
Procedure: (§1) The anti-biofilm effects of all synthetic peptides were evaluated, which was described in our previous study. The organisms, including S. aureus (NCTC 10788), E. coli (NCTC 10418), MRSA (ATCC 12493), E. faecalis (NCTC 12697) and P. aeruginosa (ATCC 27853), were investigated in this study. Gram-positive bacteria were cultured in the TSB broth and Gram-negative bacteria were cultured in the LB broth. The anti-biofilm effects were determined based on the MBIC and MBEC of all the peptides. For the determination of MBIC, 5 × 10^5 CFU/mL bacterial cultures were incubated with the peptides concentrations (ranging from 1 µM to 512 µM) for 24 h. The sterilised medium and bacterial suspension without any treatment were used as the negative controls and positive controls, respectively. After incubation, wells were rinsed, fixed, stained, washed and dissolved with phosphate buffer saline (PBS), methanol (90%, v/v), crystal violet (0.1%, w/v), sterile deionised water and acetic acid (30%, v/v), respectively. The absorbance of dissolved stain was measured at a 595 nm using a Synergy HT plate reader (Biotech, Minneapolis, MN, USA).
(§2) For the MBEC assay, the peptide concentrations were prepared as above. The bacteria were cultured in the 96 well plate for 24–48 h, which allowed the formation of mature biofilm in the plate. Then, the bacterial culture was removed from the plate. The biofilm was further washed to remove the planktonic bacteria using PBS. Then, the fresh broth that contained different peptide concentrations was added in the plate for incubation of 24 h at 37 °C. After incubation, the plate was stained by crystal violet as mentioned above. The definition of MBIC can be given when compared to the negative control group (≥90%, MBIC90; ≥50%, MBIC50). The definition of the MBEC can be given when compared to the negative control group (≥90%, MBEC90; ≥50%, MBEC50).

[2] = test system: Staphylococcus aureus (NCTC 10788); assay type: cell-based; details: for MBC: NCTC 10788, 18 h; for MIC: NCTC 10788, 24 h
[3] = test system: Pseudomonas aeruginosa (ATCC 27853); assay type: cell-based; details: for MBC: ATCC 27853, 18 h; for MIC: ATCC 27853, 24 h
[4] = test system: Escherichia coli (NCTC 10418); assay type: cell-based; details: for MBC: NCTC 10418, 18 h; for MIC: NCTC 10418, 24 h
[5] = test system: Candida albicans (NCPF 1467); assay type: cell-based; details: for MBC: NCPF 1467, 18 h; for MIC: NCPF 1467, 24 h
[6] = test system: Methicillin-resistant Staphylococcus aureus (MRSA, ATCC 12493); assay type: cell-based; details: for MBC: ATCC 12493, 18 h; for MIC: ATCC 12493, 24 h
[7] = test system: Enterococcus faecalis (NCTC 12697); assay type: cell-based; details: for MBC: NCTC 12697, 18 h; for MIC: NCTC 12697, 24 h
[8] = test system: E. faecalis (NCTC 12697) biofilm; assay type: cell-based, Enterococcus faecalis; details: for MBIC50 / MBIC90: NCTC 12697, 24 h
Procedure: as §1, §2

C. albicans = assay type: cell-based, Candida albicans; details: 24 h
Procedure: The minimal inhibitory concentrations (MICs) and minimum bactericidal concentrations (MBCs) were evaluated to determine the antimicrobial activity of synthetic peptides. The microorganisms employed in the study are two kinds of Gram-negative bacteria, Escherichia coli (NCTC 10418) and Pseudomonas aeruginosa (ATCC 27853), three kinds of Gram-positive bacteria, Staphylococcus aureus (NCTC 10788), Methicillin-resistant Staphylococcus aureus (MRSA, ATCC 12493) and Enterococcus faecalis (NCTC 12697) and a yeast, Candida albicans (NCPF 1467), as indicated previously. For antimicrobial assays, 5 × 10^5 CFU/mL of bacterial suspensions were incubated with the concentrations of the peptides (ranging from 1 µM to 512 µM) for 24 h at 37 °C. The sterilised broth medium was used as the positive control and the microorganism cultured in the medium only was treated as the negative control. […] The MBC results were defined as the lowest bactericidal concentrations of peptide. The antimicrobial activity of peptides was tested by monitoring the absorbance at 550 nm using an ELISA plate reader (Biolise BioTek EL808, Winooski, VT, USA).
The activity of peptides in the different environmental conditions including different concentrations of NaCl (50, 100 and 150 mM) and MgCl2 (0.5, 1 and 2 mM), pH (6, 7 and 8), temperature (50 °C, 75 °C and 100 °C) and 10% fetal bovine serum (FBS) solution, was evaluated using the broth microdilution assay as described in the antimicrobial activity assay. For the stability test of peptides in the presence of salt, pH and serum, these conditions were adjusted in the fresh medium that was further used to dilute the bacteria suspension. The peptides were also dissolved in such broth and mixed with the bacteria suspension in the 96 well plate. For the thermal stability test, the peptides were dissolved in the water and incubated at different temperature for 15 min before dosing in the plate. The sterilised broth with corresponding conditions was used as the positive controls, and the bacteria suspension without any treatment was used as the negative controls.

[9] = test system: S. aureus (NCTC 10788) biofilm; assay type: cell-based, Staphylococcus aureus; details: for MBIC50 / MBIC90: NCTC 10788, 24 h
Procedure: as §1, §2

[10] = test system: MRSA (ATCC 12493) biofilm; assay type: cell-based, Staphylococcus aureus; details: for MBIC50 / MBIC90: ATCC 12493, 24 h
Procedure: as §1, §2

Structure (SMILES)	MBEC50 [1] [µM]	MBEC90 [1] [µM]	MBIC50 [1] [µM]	MBIC90 [1] [µM]	MBC [2] [µM]	MIC [2] [µM]	MBC [3] [µM]	MIC [3] [µM]	MBC [4] [µM]	MIC [4] [µM]	MBC [5] [µM]	MIC [5] [µM]	MBC [6] [µM]	MIC [6] [µM]	MBC [7] [µM]	MIC [7] [µM]	MBEC50 [8] [µM]	MBEC90 [8] [µM]	MBIC50 [8] [µM]	MBIC90 [8] [µM]	also measured
CC(C)C[C@H](NC(=O)[C@H](C)NC(=O)[C@H](Cc1c[nH]c2ccccc12)NC(=O)[C@H](CCCCN)NC(=O)[C@@H]1CCCN1C(=O)[C@H](CC(C)C)NC(=O)[C@@H](N)Cc1ccccc1)C(=O)N[C@@H](CCCCN)C(=O)N[C@@H](Cc1c[nH]c2ccccc12)C(=O)N[C@@H](C)C(=O)N[C@@H](C)C(=O)N[C@@H](CCCCN)C(N)=O [OSf] (H-FLPKWALKWAAK-NH2; N-terminus assumed)	> 512	> 512	32	128	16 (≈ 23.3 µg/mL)	8 (≈ 11.7 µg/mL)	64 (≈ 93.3 µg/mL)	64 (≈ 93.3 µg/mL)	16 (≈ 23.3 µg/mL)	8 (≈ 11.7 µg/mL)	16 (≈ 23.3 µg/mL)	8 (≈ 11.7 µg/mL)	64 (≈ 93.3 µg/mL)	16 (≈ 23.3 µg/mL)	64 (≈ 93.3 µg/mL)	32 (≈ 46.7 µg/mL)	128	256	32	64	MIC (C. albicans; pH 6): 128 µM (≈ 187 µg/mL); MIC (C. albicans; pH 7): 8 µM (≈ 11.7 µg/mL); MIC (C. albicans; pH 8): 16 µM (≈ 23.3 µg/mL); MBEC50 [9]: 32 µM; MBEC90 [9]: 128 µM; MBIC50 [9]: 8 µM; MBIC90 [9]: 32 µM; MBEC50 [10]: 32 µM; MBEC90 [10]: 128 µM; MBIC50 [10]: 16 µM; MBIC90 [10]: 64 µM
CC(C)C[C@H](NC(=O)[C@H](C)NC(=O)[C@H](Cc1c[nH]c2ccccc12)NC(=O)[C@H](CCCCN)NC(=O)[C@H](CC(C)C)NC(=O)[C@@H](N)Cc1ccccc1)C(=O)N[C@@H](CCCCN)C(=O)N[C@@H](Cc1c[nH]c2ccccc12)C(=O)N[C@@H](C)C(=O)N[C@@H](C)C(=O)N[C@@H](CCCCN)C(N)=O [OSe] (H-FLKWALKWAAK-NH2)	> 512	> 512	16	32	4 (≈ 5.44 µg/mL)	4 (≈ 5.44 µg/mL)	16 (≈ 21.8 µg/mL)	16 (≈ 21.8 µg/mL)	16 (≈ 21.8 µg/mL)	16 (≈ 21.8 µg/mL)	4 (≈ 5.44 µg/mL)	4 (≈ 5.44 µg/mL)	8 (≈ 10.9 µg/mL)	8 (≈ 10.9 µg/mL)	16 (≈ 21.8 µg/mL)	16 (≈ 21.8 µg/mL)	128	128	64	64	MIC (C. albicans; pH 6): 16 µM (≈ 21.8 µg/mL); MIC (C. albicans; pH 7): 8 µM (≈ 10.9 µg/mL); MIC (C. albicans; pH 8): 4 µM (≈ 5.44 µg/mL); MBEC50 [9]: 32 µM; MBEC90 [9]: 32 µM; MBIC50 [9]: 4 µM; MBIC90 [9]: 8 µM; MBEC50 [10]: 32 µM; MBEC90 [10]: 32 µM; MBIC50 [10]: 8 µM; MBIC90 [10]: 16 µM
CC(C)C[C@H](NC(=O)[C@H](C)NC(=O)[C@H](Cc1c[nH]c2ccccc12)NC(=O)[C@H](CCCCN)NC(=O)[C@H](CC(C)C)NC(=O)[C@@H](N)Cc1ccccc1)C(=O)N[C@@H](CCCCN)C(=O)N[C@H](C(=O)N[C@@H](C)C(=O)N[C@@H](C)C(=O)N[C@@H](CCCCN)C(N)=O)C(C)C [OSd] (H-FLKWALKVAAK-NH2)	> 512	> 512	64	128	32 (≈ 40.8 µg/mL)	16 (≈ 20.4 µg/mL)	64 (≈ 81.5 µg/mL)	64 (≈ 81.5 µg/mL)	32 (≈ 40.8 µg/mL)	32 (≈ 40.8 µg/mL)	32 (≈ 40.8 µg/mL)	16 (≈ 20.4 µg/mL)	32 (≈ 40.8 µg/mL)	32 (≈ 40.8 µg/mL)	64 (≈ 81.5 µg/mL)	32 (≈ 40.8 µg/mL)	128	256	64	128	MIC (C. albicans; pH 6): 64 µM (≈ 81.5 µg/mL); MIC (C. albicans; pH 7): 32 µM (≈ 40.8 µg/mL); MIC (C. albicans; pH 8): 32 µM (≈ 40.8 µg/mL); MBEC50 [9]: 32 µM; MBEC90 [9]: 128 µM; MBIC50 [9]: 8 µM; MBIC90 [9]: 32 µM; MBEC50 [10]: 32/32 µM; MBEC90 [10]: 256 µM; MBIC50 [10]: 32/32 µM; MBIC90 [10]: 64 µM
